Experimental data reported in the NIST ThermoML archive (doi:10.1016/j.jct.2013.08.007).
Numbers after ± are expanded uncertainties.

Key:
[1] = xn = mol fraction of the nth substance listed; settings: Liquid; for viscosity: Moving piston method; for mass density: Vibrating tube method
[2] = Liquid; for mass density: Vibrating tube method; for viscosity: 101.33 kPa, Moving piston method

CC [ethane] + CCCCO
[1]
Settings | mass density, 303 K [kg/m3] | mass density, 323.1 K [kg/m3] | viscosity, 303 K [mPa·s] | viscosity, 323.1 K [mPa·s]
1050 kPa, x1 = 0.097 | 776.8 ± 0.8 | – | 1.553 ± 0.059 | –
1140 kPa, x1 = 0.086 | – | 762.8 ± 1.1 | – | 1.008 ± 0.021
2050 kPa, x1 = 0.157 | – | 744.2 ± 3.3 | – | 0.801 ± 0.05
2080 kPa, x1 = 0.214 | 745.4 ± 3.1 | – | 1.114 ± 0.05 | –
3070 kPa, x1 = 0.243 | – | 718.4 ± 2.3 | – | 0.618 ± 0.028
3070 kPa, x1 = 0.341 | 704.9 ± 3.2 | – | 0.668 ± 0.039 | –
4070 kPa, x1 = 0.336 | – | 688.3 ± 3.8 | – | 0.462 ± 0.024
4950 kPa, x1 = 0.428 | – | 652.9 ± 2.4 | – | 0.351 ± 0.015
6020 kPa, x1 = 0.579 | – | 588.2 ± 1.9 | – | 0.212 ± 0.012

C [methane] + CCCCO
[1]
Settings | mass density, 303 K [kg/m3] | mass density, 323.1 K [kg/m3] | viscosity, 303 K [mPa·s] | viscosity, 323.1 K [mPa·s]
1050 kPa, x1 = 0.02 | – | 782.2 ± 0.7 | – | 1.236 ± 0.035
1060 kPa, x1 = 0.021 | 797.6 ± 0.6 | – | 1.994 ± 0.1 | –
2070 kPa, x1 = 0.035 | – | 778.5 ± 3.2 | – | 1.174 ± 0.13
2100 kPa, x1 = 0.039 | 793.7 ± 3.1 | – | 1.86 ± 0.057 | –
2980 kPa, x1 = 0.048 | – | 775.5 ± 1 | – | 1.131 ± 0.031
3120 kPa, x1 = 0.056 | 789.4 ± 1.8 | – | 1.731 ± 0.25 | –
4030 kPa, x1 = 0.065 | – | 771.6 ± 1 | – | 1.085 ± 0.042
4080 kPa, x1 = 0.071 | 785.8 ± 3.9 | – | 1.67 ± 0.12 | –
5020 kPa, x1 = 0.079 | – | 767.9 ± 1 | – | 1.046 ± 0.029
5090 kPa, x1 = 0.087 | 781.8 ± 2.9 | – | 1.612 ± 0.077 | –
6070 kPa, x1 = 0.095 | – | 764.2 ± 0.6 | – | 1.005 ± 0.034
6070 kPa, x1 = 0.102 | 778.3 ± 0.7 | – | 1.548 ± 0.083 | –

CCCCO [butan-1-ol] + O=C=O
[1]
Settings | mass density, 303 K [kg/m3] | mass density, 323.1 K [kg/m3] | viscosity, 303 K [mPa·s] | viscosity, 323.1 K [mPa·s]
920 kPa, x2 = 0.047 | – | 789.3 ± 0.9 | – | 1.143 ± 0.029
1050 kPa, x2 = 0.07 | 808.1 ± 0.6 | – | 1.744 ± 0.079 | –
1920 kPa, x2 = 0.098 | – | 793.3 ± 4.4 | – | 1 ± 0.11
2030 kPa, x2 = 0.14 | 814.3 ± 0.7 | – | 1.428 ± 0.063 | –
2940 kPa, x2 = 0.151 | – | 798.4 ± 1 | – | 0.828 ± 0.054
3220 kPa, x2 = 0.217 | 822.8 ± 0.5 | – | 1.16 ± 0.04 | –
3990 kPa, x2 = 0.223 | – | 802 ± 0.8 | – | 0.722 ± 0.02
4100 kPa, x2 = 0.304 | 828.4 ± 0.4 | – | 0.87 ± 0.044 | –
4970 kPa, x2 = 0.384 | 835.3 ± 0.6 | – | 0.661 ± 0.022 | –
5100 kPa, x2 = 0.288 | – | 806.7 ± 0.6 | – | 0.599 ± 0.017
6250 kPa, x2 = 0.374 | – | 811 ± 0.8 | – | 0.486 ± 0.016

CCCCO [butan-1-ol]
mass density [kg/m3], [2]
Settings | 302.9 K | 323.1 K
100 kPa | 802 ± 0.3 | 785.6 ± 0.3
1010 kPa | – | 786.6 ± 0.3
1020 kPa | 802.7 ± 0.3 | –
2010 kPa | 803.4 ± 0.3 | –
2020 kPa | – | 787.5 ± 0.3
3010 kPa | 804.1 ± 0.3 | 788.3 ± 0.3
4000 kPa | 804.9 ± 0.3 | 789.2 ± 0.3
5010 kPa | 805.7 ± 0.3 | –
5020 kPa | – | 790 ± 0.3
6000 kPa | 806.4 ± 0.3 | –
6020 kPa | – | 790.9 ± 0.3
7000 kPa | – | 791.7 ± 0.3
7020 kPa | 807.2 ± 0.3 | –
8010 kPa | 807.9 ± 0.3 | 792.5 ± 0.3
9020 kPa | 808.7 ± 0.3 | 793.3 ± 0.3
10020 kPa | 809.4 ± 0.3 | 794.2 ± 0.3

[2]
Settings | viscosity [mPa·s]
303.15 K | 2.197 ± 0.088
323.3 K | 1.347 ± 0.055
